Columns and labels:
Solubility in THF = assay type: physicochemical; conditions: in 1 ml of THF
Solubility in toluene = assay type: physicochemical; conditions: in 1 ml of toluene; for solubility relative to that of Th4-SiCl3: ratio to Th4-SiCl3

CCCCCCCCCCCCCCCCCCc1ccc(-c2ccc(-c3ccc([Si](Cl)(Cl)Cl)cc3)cc2)cc1 [C18-P3-SiCl3]
solubility relative to that of P3-SiCl3 (Solubility in THF; ratio to P3-SiCl3): about 2.8 times

CCCCCCCCCCCCCCCCCCc1ccc(-c2ccc(-c3ccc(-c4ccc([Si](OCC)(OCC)OCC)s4)s3)s2)s1 [C18-Th4-Si(OC2H5)3]
solubility relative to that of Th4-SiCl3 (Solubility in toluene): about 10 times

CCCCCCCCCCCCCCCCCCc1ccc(-c2ccc(-c3ccc(-c4ccc([Si](OC)(OC)OC)s4)s3)s2)s1 [C18-Th4-Si(OCH3)3]
solubility relative to that of Th4-SiCl3 (Solubility in toluene): about 9.5 times

Cl[Si](Cl)(Cl)c1ccc(-c2ccc(-c3ccccc3)cc2)cc1 [P3-SiCl3, reference compound]
solubility (Solubility in THF): about 2.0 mg/ml

Cl[Si](Cl)(Cl)c1ccc(-c2ccc(-c3ccc(-c4cccs4)s3)s2)s1 [Th4-SiCl3, reference compound]
solubility (Solubility in toluene): about 1.0 mg/ml

From patent US20070287848A1, “Silicon Compound Containi-Electron Conjugated-System Molecule and Process for Producing the Same” (priority 2004, published 2007)
